Test results published in the supplement of paper PMC10307832.

Legend:
Experiment in all cases: relative viability (nuclei count vs DMSO), 5 days (fraction); higher = more cells survive
HCC-366 = system: HCC-366
Method in brief: (§1)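 Lung cancer cell lines, seeded in 1536-well plates, were treated the following day by pin tool with a single drug or with five library-drug doses (not always all listed) in √10 steps on top of a fixed anchor-drug dose. Cells were fixed and nuclei stained in one step after 5 days, and nuclei were counted. Relative viability is the nuclei count for treated wells divided by that for vehicle wells, reported as medians of duplicate plates.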

NCI-H2009 = system: NCI-H2009
Method in brief: as §1

SK-LU-1 = system: SK-LU-1
Method in brief: as §1

HCC-15 = system: HCC-15
Method in brief: as §1

NCI-H2023 = system: NCI-H2023
Method in brief: as §1

NCI-H460 = system: NCI-H460
Method in brief: as §1

NCI-H1437 = system: NCI-H1437
Method in brief: as §1

NCI-H1915 = system: NCI-H1915
Method in brief: as §1

NCI-H1793 = system: NCI-H1793
Method in brief: as §1

NCI-H2405 = system: NCI-H2405
Method in brief: as §1

PC-14 = system: PC-14
Method in brief: as §1

NCI-H650 = system: NCI-H650
Method in brief: as §1

H3255 = system: H3255
Method in brief: as §1

A-427 = system: A-427
Method in brief: as §1

NCI-H441 = system: NCI-H441
Method in brief: as §1

NCI-H3122 = system: NCI-H3122
Method in brief: as §1

UMC-11 = system: UMC-11
Method in brief: as §1

LXF-289 = system: LXF-289
Method in brief: as §1

HARA = system: HARA
Method in brief: as §1

NCI-H1975 = system: NCI-H1975
Method in brief: as §1

NCI-H1755 = system: NCI-H1755
Method in brief: as §1

PC-3 [JPC-3] = system: PC-3 [JPC-3]
Method in brief: as §1

## O=c1[nH]c2ccccc2n1C1CCN(CCCC(c2ccc(F)cc2)c2ccc(F)cc2)CC1 [Pimozide] + CC(=O)c1c(C)c2cnc(Nc3ccc(N4CCNCC4)cn3)nc2n(C2CCCC2)c1=O [Palbociclib] (partner 0.5 µM)
HCC-366; first compound 0.08 µM
  relative viability: 0.38
HCC-366; first compound 0.253 µM
  relative viability: 0.404
HCC-366; first compound 0.8 µM
  relative viability: 0.345
HCC-366; first compound 2.53 µM
  relative viability: 0.379
HCC-366; first compound 8 µM
  relative viability: 0.357
NCI-H2009; first compound 0.08 µM
  relative viability: 0.202
NCI-H2009; first compound 0.253 µM
  relative viability: 0.307
NCI-H2009; first compound 0.8 µM
  relative viability: 0.178
NCI-H2009; first compound 2.53 µM
  relative viability: 0.226
NCI-H2009; first compound 8 µM
  relative viability: 0.188
SK-LU-1; first compound 0.08 µM
  relative viability: 0.384
SK-LU-1; first compound 0.253 µM
  relative viability: 0.533
SK-LU-1; first compound 0.8 µM
  relative viability: 0.404
SK-LU-1; first compound 2.53 µM
  relative viability: 0.377
SK-LU-1; first compound 8 µM
  relative viability: 0.348
HCC-15; first compound 0.08 µM
  relative viability: 0.747
HCC-15; first compound 0.253 µM
  relative viability: 0.641
HCC-15; first compound 0.8 µM
  relative viability: 0.673
HCC-15; first compound 2.53 µM
  relative viability: 0.652
HCC-15; first compound 8 µM
  relative viability: 0.653
NCI-H2023; first compound 0.08 µM
  relative viability: 0.337
NCI-H2023; first compound 0.253 µM
  relative viability: 0.39
NCI-H2023; first compound 0.8 µM
  relative viability: 0.341
NCI-H2023; first compound 2.53 µM
  relative viability: 0.333
NCI-H2023; first compound 8 µM
  relative viability: 0.245
NCI-H460; first compound 0.08 µM
  relative viability: 0.137
NCI-H460; first compound 0.253 µM
  relative viability: 0.188
NCI-H460; first compound 0.8 µM
  relative viability: 0.139
NCI-H460; first compound 2.53 µM
  relative viability: 0.221
NCI-H460; first compound 8 µM
  relative viability: 0.184
NCI-H1437; first compound 0.08 µM
  relative viability: 0.338
NCI-H1437; first compound 0.253 µM
  relative viability: 0.328
NCI-H1437; first compound 0.8 µM
  relative viability: 0.25
NCI-H1437; first compound 2.53 µM
  relative viability: 0.256
NCI-H1437; first compound 8 µM
  relative viability: 0.265
NCI-H1915; first compound 0.08 µM
  relative viability: 0.435
NCI-H1915; first compound 0.253 µM
  relative viability: 0.498
NCI-H1915; first compound 2.53 µM
  relative viability: 0.501
NCI-H1915; first compound 8 µM
  relative viability: 0.477
NCI-H1793; first compound 0.08 µM
  relative viability: 0.263
NCI-H1793; first compound 0.253 µM
  relative viability: 0.289
NCI-H1793; first compound 0.8 µM
  relative viability: 0.306
NCI-H1793; first compound 2.53 µM
  relative viability: 0.285
NCI-H1793; first compound 8 µM
  relative viability: 0.339
NCI-H2405; first compound 0.08 µM
  relative viability: 0.522
NCI-H2405; first compound 0.253 µM
  relative viability: 0.516
NCI-H2405; first compound 0.8 µM
  relative viability: 0.478
NCI-H2405; first compound 2.53 µM
  relative viability: 0.456
NCI-H2405; first compound 8 µM
  relative viability: 0.33
PC-14; first compound 0.253 µM
  relative viability: 0.579
PC-14; first compound 0.8 µM
  relative viability: 0.368
PC-14; first compound 2.53 µM
  relative viability: 0.219
PC-14; first compound 8 µM
  relative viability: 0.178
NCI-H650; first compound 0.08 µM
  relative viability: 0.396
NCI-H650; first compound 0.253 µM
  relative viability: 0.313
NCI-H650; first compound 0.8 µM
  relative viability: 0.331
NCI-H650; first compound 2.53 µM
  relative viability: 0.313
NCI-H650; first compound 8 µM
  relative viability: 0.291
H3255; first compound 0.253 µM
  relative viability: 0.312
H3255; first compound 0.8 µM
  relative viability: 0.299
H3255; first compound 2.53 µM
  relative viability: 0.307
H3255; first compound 8 µM
  relative viability: 0.312
A-427; first compound 0.08 µM
  relative viability: 0.531
A-427; first compound 0.253 µM
  relative viability: 0.57
A-427; first compound 0.8 µM
  relative viability: 0.462
A-427; first compound 2.53 µM
  relative viability: 0.457
A-427; first compound 8 µM
  relative viability: 0.497
NCI-H441; first compound 0.08 µM
  relative viability: 0.273
NCI-H441; first compound 0.253 µM
  relative viability: 0.252
NCI-H441; first compound 0.8 µM
  relative viability: 0.162
NCI-H441; first compound 2.53 µM
  relative viability: 0.218
NCI-H441; first compound 8 µM
  relative viability: 0.208
NCI-H3122; first compound 0.08 µM
  relative viability: 0.175
NCI-H3122; first compound 0.253 µM
  relative viability: 0.176
NCI-H3122; first compound 0.8 µM
  relative viability: 0.174
NCI-H3122; first compound 2.53 µM
  relative viability: 0.163
NCI-H3122; first compound 8 µM
  relative viability: 0.185
UMC-11; first compound 0.08 µM
  relative viability: 0.313
UMC-11; first compound 0.253 µM
  relative viability: 0.35
UMC-11; first compound 0.8 µM
  relative viability: 0.315
UMC-11; first compound 2.53 µM
  relative viability: 0.278
UMC-11; first compound 8 µM
  relative viability: 0.367
LXF-289; first compound 0.08 µM
  relative viability: 0.588
LXF-289; first compound 0.253 µM
  relative viability: 0.607
LXF-289; first compound 0.8 µM
  relative viability: 0.571
LXF-289; first compound 2.53 µM
  relative viability: 0.574
LXF-289; first compound 8 µM
  relative viability: 0.586
HARA; first compound 0.08 µM
  relative viability: 0.278
HARA; first compound 0.253 µM
  relative viability: 0.263
HARA; first compound 0.8 µM
  relative viability: 0.22
HARA; first compound 2.53 µM
  relative viability: 0.255
HARA; first compound 8 µM
  relative viability: 0.178
NCI-H1975; first compound 0.08 µM
  relative viability: 0.402
NCI-H1975; first compound 0.253 µM
  relative viability: 0.515
NCI-H1975; first compound 0.8 µM
  relative viability: 0.619
NCI-H1975; first compound 2.53 µM
  relative viability: 0.593
NCI-H1975; first compound 8 µM
  relative viability: 0.494
NCI-H1755; first compound 0.08 µM
  relative viability: 0.448
NCI-H1755; first compound 0.253 µM
  relative viability: 0.337
NCI-H1755; first compound 0.8 µM
  relative viability: 0.447
NCI-H1755; first compound 2.53 µM
  relative viability: 0.416
NCI-H1755; first compound 8 µM
  relative viability: 0.46
PC-3 [JPC-3]; first compound 0.253 µM
  relative viability: 0.551
PC-3 [JPC-3]; first compound 0.8 µM
  relative viability: 0.481
PC-3 [JPC-3]; first compound 2.53 µM
  relative viability: 0.544
PC-3 [JPC-3]; first compound 8 µM
  relative viability: 0.509
